Measured values as given in patent publication US20260041744A1, “Methods for Treating Pompe Disease” (Amicus Therapeutics, Inc., priority 2022, published 2026).
Entries after “also recorded” stand apart in the source; their conditions may differ.

Tests used:
[1] = system: adults with Pompe disease; experiment: Study ATB200-02: manual muscle test (MMT lower extremity, upper body, total); assay type: in vivo, human; details: for MMT total score (upper body) change from baseline, mean: Cohort 2 (non-ambulatory ERT-experienced)
Excerpt: Results for lower extremity MMT are shown in Table 25 and FIGS. 48A and 48B.

[2] = system: adults with Pompe disease; experiment: Study ATB200-02: sitting % predicted FVC; details: for FVC change from baseline, mean: Cohort 2 (non-ambulatory ERT-experienced)
Experimental: Four cohorts of patients with Pompe disease were enrolled in the ATB200-02 study: • Cohort 1: ERT-experienced, aged 18-65 years, with 2-6 years prior ERT with 20 mg/kg alglucosidase alfa every 2 weeks (n=11) • Cohort 2: Non-ambulatory ERT-experienced, aged 18-65 years, with ≥2 years prior ERT with 20 mg/kg alglucosidase alfa every 2 weeks (n=6)· • Cohort 3: ERT-naïve, aged 18-65 years (n=6). • Cohort 4: ERT-experienced, aged 18-75 years, with ≥7 years prior ERT with 20 mg/kg alglucosidase alfa every 2 weeks (n=6)
The change from baseline (CFBL) in 6MWD, % predicted sitting FVC, manual muscle test (MMT) and biomarkers—urine glucose tetrasaccharide (Hex4) and serum creatine kinase (CK)—were assessed at regular intervals. Data with up to 36 months of follow-up in ERT-experienced and ERT-naïve patients is provided herein. […] Due to the staggered timing of patient enrollment, the number of patients with data currently available decreases at later time-points in this ongoing study.

[3] = Ambulatory ERT-experienced, 12 months
[4] = Ambulatory ERT-experienced, 24 months
[5] = Ambulatory ERT-experienced, 36 months
[6] = Ambulatory ERT-experienced, 48 months
[7] = Ambulatory ERT-naïve, 12 months
[8] = Ambulatory ERT-naïve, 24 months
[9] = Ambulatory ERT-naïve, 36 months
[10] = Ambulatory ERT-naïve, 48 months
[11] = Cohort 1 + Cohort 3 + Cohort 4, Month 12
[12] = Cohort 1 + Cohort 3 + Cohort 4, Month 24
[13] = Cohort 1 + Cohort 3 + Cohort 4, Month 36
[14] = Cohort 1 + Cohort 3 + Cohort 4, Month 48
[15] = Cohort 1 + Cohort 4 (ERT-experienced), Month 36
[16] = Non-ambulatory ERT-experienced, 12 months
[17] = Non-ambulatory ERT-experienced, 24 months
[18] = Non-ambulatory ERT-experienced, 36 months

## ATB200/miglustat: two-component therapy: cipaglucosidase alfa (ATB200) administered in conjunction with miglustat (AT2221), a stabilizer of cipaglucosidase alfa
[1]; 48 months
  muscle strength by MMTs and QMTs: stable or improved muscle strength in the lower and upper extremities and proximal muscle groups
[1]; [3]
  Lower body MMT score, CFBL mean: 3.1
  Total MMT score, CFBL mean: 4.3
  Upper body MMT score, CFBL mean: 1.3
[1]; [4]
  Lower body MMT score, CFBL mean: 2.1
  Total MMT score, CFBL mean: 2.5
  Upper body MMT score, CFBL mean: 0.5
[1]; [5]
  Lower body MMT score, CFBL mean: 2.5
  Total MMT score, CFBL mean: 3.6
  Upper body MMT score, CFBL mean: 0.8
[1]; [6]
  Lower body MMT score, CFBL mean: 3.5
  Total MMT score, CFBL mean: 4.0
  Upper body MMT score, CFBL mean: 0.5
[1]; [7]
  Lower body MMT score, CFBL mean: 2.8
  Total MMT score, CFBL mean: 2.4
  Upper body MMT score, CFBL mean: 0.0
[1]; [8]
  Lower body MMT score, CFBL mean: 3.0
  Total MMT score, CFBL mean: 2.0
  Upper body MMT score, CFBL mean: −1.5
[1]; [9]
  Lower body MMT score, CFBL mean: (3.3
  Total MMT score, CFBL mean: 3.5
  Upper body MMT score, CFBL mean: 1.0
[1]; [10]
  Lower body MMT score, CFBL mean: (1.0)
  Total MMT score, CFBL mean: −1.3
  Upper body MMT score, CFBL mean: −1.4
[1]; Cohort 1 + Cohort 3 + Cohort 4, 24-mo
  MMT (total score) CFB, mean: 2.4
[1]; Cohort 1 + Cohort 3 + Cohort 4, 48-mo
  MMT (total score) CFB, mean: 2.3
[1]; [11]
  MMT lower extremity score change from baseline, mean: 3.0
  MMT lower extremity score change from baseline, median: 3.0
[1]; [12]
  MMT lower extremity score change from baseline, mean: 2.3
  MMT lower extremity score change from baseline, median: 2.0
[1]; [13]
  MMT lower extremity score change from baseline, mean: 2.7
  MMT lower extremity score change from baseline, median: 2.0
[1]; [14]
  MMT lower extremity score change from baseline, mean: 2.7
  MMT lower extremity score change from baseline, median: 3.0
[1]; Cohort 1 + Cohort 4 (ERT-experienced), 24-mo
  MMT (total score) CFB, mean: 2.5
[1]; Cohort 1 + Cohort 4 (ERT-experienced), 48-mo
  MMT (total score) CFB, mean: 4.0
[1]; Cohort 1 + Cohort 4 (ERT-experienced), Month 12
  MMT lower extremity score change from baseline, mean: 3.1 pts
[1]; Cohort 1 + Cohort 4 (ERT-experienced), Month 24
  MMT lower extremity score change from baseline, mean: 2.1 pts
[1]; [15]
  MMT lower extremity score change from baseline, mean: 2.5 pts
[1]; Cohort 1 + Cohort 4 (ERT-experienced), Month 48
  MMT lower extremity score change from baseline, mean: 3.5 pts
[1]; Cohort 1 + Cohort 4, Month 12
  MMT lower extremity score change from baseline, median: 2.0
[1]; Cohort 1 + Cohort 4, Month 24
  MMT lower extremity score change from baseline, median: 2.0
[1]; Cohort 1 + Cohort 4, Month 36
  MMT lower extremity score change from baseline, median: 1.5
[1]; Cohort 1 + Cohort 4, Month 48
  MMT lower extremity score change from baseline, median: 3.0
[1]; month 12
  MMT total score (upper body) change from baseline, mean: +1.3 pts
[1]; month 24
  MMT total score (upper body) change from baseline, mean: +2.0 pts
[1]; month 36
  MMT total score (upper body) change from baseline, mean: −0.8 pts
[1]; Cohort 3 (ERT-naïve), 24-mo
  MMT (total score) CFB, mean: 2.0
[1]; Cohort 3 (ERT-naïve), 48-mo
  MMT (total score) CFB, mean: −1.3
[1]; Cohort 3 (ERT-naïve), Month 12
  MMT lower extremity score change from baseline, mean: 2.8 pts
[1]; Cohort 3 (ERT-naïve), Month 24
  MMT lower extremity score change from baseline, mean: 3.0 pts
[1]; Cohort 3 (ERT-naïve), Month 36
  MMT lower extremity score change from baseline, mean: 3.3 pts
[1]; Cohort 3 (ERT-naïve), Month 48
  MMT lower extremity score change from baseline, mean: 1.0 pts
[1]; Cohort 3, Month 12
  MMT lower extremity score change from baseline, median: 4.0
[1]; Cohort 3, Month 24
  MMT lower extremity score change from baseline, median: 3.0
[1]; Cohort 3, Month 36
  MMT lower extremity score change from baseline, median: 3.5
[1]; Cohort 3, Month 48
  MMT lower extremity score change from baseline, median: 2.0
[1]; ERT-experienced ambulatory, 12 months
  patients whose MMT lower extremity score improved numerically from baseline (n/N): 14/15
[1]; ERT-experienced ambulatory, 24 months
  patients whose MMT lower extremity score improved numerically from baseline (n/N): 11/13
[1]; ERT-experienced ambulatory, 36 months
  patients whose MMT lower extremity score improved numerically from baseline (n/N): 10/10
[1]; ERT-experienced ambulatory, 48 months
  patients whose MMT lower extremity score improved numerically from baseline (n/N): 8/8
[1]; ERT-naïve, 12 months
  patients whose MMT lower extremity score improved numerically from baseline (n/N): 4/5
[1]; ERT-naïve, 24 months
  patients whose MMT lower extremity score improved numerically from baseline (n/N): 4/5
[1]; ERT-naïve, 36 months
  patients whose MMT lower extremity score improved numerically from baseline (n/N): 4/4
[1]; ERT-naïve, 48 months
  patients whose MMT lower extremity score improved numerically from baseline (n/N): 3/4
[1]; [16]
  Total MMT score, CFBL mean: 1.3
  Upper body MMT score, CFBL mean: 1.3
[1]; [17]
  Total MMT score, CFBL mean: 2.0
  Upper body MMT score, CFBL mean: 2.0
[1]; [18]
  Total MMT score, CFBL mean: −0.8
  Upper body MMT score, CFBL mean: −0.8
[2]; [3]
  Percent predicted sitting FVC, CFBL mean: −1.2
[2]; [4]
  Percent predicted sitting FVC, CFBL mean: 1.0
[2]; [5]
  Percent predicted sitting FVC, CFBL mean: −0.3
[2]; [6]
  Percent predicted sitting FVC, CFBL mean: 1.0
[2]; [7]
  Percent predicted sitting FVC, CFBL mean: 3.2
[2]; [8]
  Percent predicted sitting FVC, CFBL mean: 4.7
[2]; [9]
  Percent predicted sitting FVC, CFBL mean: 6.2
[2]; [10]
  Percent predicted sitting FVC, CFBL mean: 8.3
[2]; [11]
  sitting % predicted FVC change from baseline, mean: 0.0%
  sitting % predicted FVC change from baseline, median: −0.5%
[2]; [12]
  sitting % predicted FVC change from baseline, mean: 2.2%
  sitting % predicted FVC change from baseline, median: 2.0%
[2]; [13]
  sitting % predicted FVC change from baseline, mean: 1.9%
  sitting % predicted FVC change from baseline, median: 2.0%
[2]; [14]
  sitting % predicted FVC change from baseline, mean: 3.9%
  sitting % predicted FVC change from baseline, median: 4.5%
[2]; Cohort 1 + Cohort 4 (ERT-experienced), Month 12, listed as cipaglucosidase alfa/miglustat
  sitting % predicted FVC change from baseline, mean: −1.2%
[2]; [15]
  sitting % predicted FVC change from baseline, mean: −0.3%
[2]; Cohort 1 + Cohort 4, Month 12
  sitting % predicted FVC change from baseline, median: −1.0%
[2]; Cohort 1 + Cohort 4, Month 24
  sitting % predicted FVC change from baseline, median: 1.0%
[2]; Cohort 1 + Cohort 4, Month 36
  sitting % predicted FVC change from baseline, median: −1.5%
[2]; Cohort 1 + Cohort 4, Month 48
  sitting % predicted FVC change from baseline, median: 3.5%
[2]; month 12
  FVC change from baseline, mean: +2.5%
[2]; month 24
  FVC change from baseline, mean: +2.0%
[2]; month 36
  FVC change from baseline, mean: −2.0%
[2]; month 48
  FVC change from baseline, mean: −1.0%
[2]; Cohort 3 (ERT-naïve), Month 12
  sitting % predicted FVC change from baseline, mean: 3.2%
[2]; Cohort 3 (ERT-naïve), Month 24
  sitting % predicted FVC change from baseline, mean: 4.7%
[2]; Cohort 3 (ERT-naïve), Month 36
  sitting % predicted FVC change from baseline, mean: 6.2%
[2]; Cohort 3 (ERT-naïve), Month 48
  sitting % predicted FVC change from baseline, mean: 8.3%
[2]; Cohort 3, Month 12
  sitting % predicted FVC change from baseline, median: 4.5%
[2]; Cohort 3, Month 24
  sitting % predicted FVC change from baseline, median: 4.0%
[2]; Cohort 3, Month 36
  sitting % predicted FVC change from baseline, median: 5.0%
[2]; Cohort 3, Month 48
  sitting % predicted FVC change from baseline, median: 9.5%
[2]; ERT-experienced, 12 months
  patients whose FVC improved (>3%) or remained stable (±3%) from baseline (n/N): 9/16
[2]; ERT-experienced, 24 months
  patients whose FVC improved (>3%) or remained stable (±3%) from baseline (n/N): 11/13
[2]; ERT-experienced, 36 months
  patients whose FVC improved (>3%) or remained stable (±3%) from baseline (n/N): 8/10
[2]; ERT-experienced, 48 months
  patients whose FVC improved (>3%) or remained stable (±3%) from baseline (n/N): 4/6
[2]; ERT-experienced, Month 48
  patients with improvement (CFBL >3% points) in % predicted sitting FVC: 66.7%
[2]; ERT-naïve, 12 months
  patients whose FVC improved (>3%) or remained stable (±3%) from baseline (n/N): 5/6
[2]; ERT-naïve, 24 months
  patients whose FVC improved (>3%) or remained stable (±3%) from baseline (n/N): 6/6
[2]; ERT-naïve, 36 months
  patients whose FVC improved (>3%) or remained stable (±3%) from baseline (n/N): 5/5
[2]; ERT-naïve, 48 months
  patients whose FVC improved (>3%) or remained stable (±3%) from baseline (n/N): 4/4
[2]; ERT-naïve, Month 48
  patients with improvement (CFBL >3% points) in % predicted sitting FVC: 75%
[2]; [16]
  Percent predicted sitting FVC, CFBL mean: 2.5
[2]; [17]
  Percent predicted sitting FVC, CFBL mean: 2.0
[2]; [18]
  Percent predicted sitting FVC, CFBL mean: −2.0
[2]; Non-ambulatory ERT-experienced, 48 months
  Percent predicted sitting FVC, CFBL mean: −1.0
[2]; up to 48 months, listed as cipaglucosidase alfa/miglustat
  % predicted FVC outcome (words; cohort in the words): stable or improved % predicted FVC for ERT-experienced subjects (Cohorts 1 and 4), ERT-naïve subjects (Cohort 3), and overall (Cohorts 1, 3, and 4); also recorded: For Cohort 2 (non-ambulatory subjects), sitting % predicted FVC was stable in 2 subjects with available data out to 36 months
